pIC50: −log10 of the molar value. Active and inactive are the calls of the source. No cut-off for these calls is given here.
Legend:
[1] = target: T1, Hepatocyte growth factor receptor (Homo sapiens, UniProt P08581); assay: Induction of c-Met degradation in human MHCC97H cells at 1 uM incubated for 24 hrs by Western blotting analysis; type: cell-based
[2] = target: T1, Hepatocyte growth factor receptor; assay: Induction of c-Met degradation in human MHCC97H cells at 500 nM after 3 to 24 hrs by Western blotting analysis; type: cell-based; conditions: time 3-24 hrs
[3] = target: T1, Hepatocyte growth factor receptor; assay: Induction of c-Met degradation in human MHCC97H cells at 500 nM after 24 hrs in presence of MG-132 by Western blotting analysis; type: cell-based
[4] = target: T1, Hepatocyte growth factor receptor; assay: Induction of c-Met degradation in human Huh-7 cells incubated for 24 hrs by Western blotting analysis; type: cell-based; conditions: dose 63-100 nM
[5] = tested on: MHCC97H; assay: Induction of cell cycle arrest in human MHCC97H cells assessed as accumulation of cells at G1 phase at 3 nM incubated for 24 hrs by PI staining based flow cytometry analysis (reference value: 70.4%); type: functional
[6] = tested on: MHCC97H; assay: Induction of cell cycle arrest in human MHCC97H cells assessed as accumulation of cells at G2 phase at 3 nM incubated for 24 hrs by PI staining based flow cytometry analysis (reference value: 19.1%); type: functional
[7] = tested on: MHCC97H; assay: Induction of cell cycle arrest in human MHCC97H cells assessed as accumulation of cells at G1 phase at 100 nM incubated for 24 hrs by PI staining based flow cytometry analysis (reference value: 70.4%); type: functional
[8] = tested on: MHCC97H; assay: Induction of cell cycle arrest in human MHCC97H cells assessed as accumulation of cells at G2 phase at 100 nM incubated for 24 hrs by PI staining based flow cytometry analysis (reference value: 19.1%); type: functional
[9] = tested on: MHCC97H; assay: Induction of apoptosis in human MHCC97H cells assessed as viable cells at 3 nM incubated for 24 hrs by Annexin-V-FITC/PI staining based flow cytometry analysis (reference value: 86.3%); type: functional; conditions: read-out: Activity
[10] = tested on: MHCC97H; assay: Induction of apoptosis in human MHCC97H cells assessed as late apoptotic cells at 3 nM incubated for 24 hrs by Annexin-V-FITC/PI staining based flow cytometry analysis (reference value: 4.24%); type: functional
[11] = tested on: MHCC97H; assay: Induction of apoptosis in human MHCC97H cells assessed as viable cells at 10 nM incubated for 24 hrs by Annexin-V-FITC/PI staining based flow cytometry analysis (reference value: 86.3%); type: functional; conditions: read-out: Activity
[12] = tested on: MHCC97H; assay: Induction of apoptosis in human MHCC97H cells assessed as late apoptotic cells at 10 nM incubated for 24 hrs by Annexin-V-FITC/PI staining based flow cytometry analysis (reference value: 4.24%); type: functional
[13] = tested on: MHCC97H; assay: Induction of apoptosis in human MHCC97H cells assessed as necrotic cells at 10 nM incubated for 24 hrs by Annexin-V-FITC/PI staining based flow cytometry analysis (reference value: 1.77%); type: functional
[14] = tested on: MHCC97H; assay: Induction of apoptosis in human MHCC97H cells assessed as necrotic cells at 100 nM incubated for 24 hrs by Annexin-V-FITC/PI staining based flow cytometry analysis (reference value: 1.77%); type: functional
[15] = tested on: MHCC97H; assay: Induction of apoptosis in human MHCC97H cells assessed as necrotic cells incubated for 24 hrs by Annexin-V-FITC/PI staining based flow cytometry analysis; type: functional, cell-based; conditions: dose 3-100 nM
[16] = tested on: MHCC97H; assay: Antitumor activity against human MHCC97H cells xenografted in BALB/c mouse assessed as tumor growth inhibition at 10 mg/kg, ip qd for 22 days and measured every 2 days; type: functional; conditions: 528 h, time 22 day, read-out: TGI
[17] = tested on: MHCC97H; assay: Antitumor activity against human MHCC97H cells xenografted in BALB/c mouse assessed as tumor growth inhibition at 20 mg/kg, po qd for 22 days and measured every 2 days; type: functional; conditions: 528 h, time 22 day, read-out: TGI
[18] = tested on: MHCC97H; assay: Antitumor activity against human MHCC97H cells xenografted in BALB/c mouse assessed as tumor growth inhibition at 20 mg/kg, po qd for 22 days and measured every 2 days by Ki67 staining based analysis; type: functional, organism-based; conditions: time 22.0 day
[19] = Toxicity in BALB/c mouse xenografted with human MHCC97H cells assessed as reduction in body weight at 10 mg/kg, ip qd for 22 days and measured every 2 days; type: organism-based; conditions: in vivo, 528 h, time 22 day
[20] = Toxicity in BALB/c mouse xenografted with human MHCC97H cells assessed as reduction in body weight at 20 mg/kg, po qd for 22 days and measured every 2 days; type: organism-based; conditions: in vivo, 528 h, time 22 day
[21] = Toxicity in BALB/c mouse xenografted with human MHCC97H cells assessed as heart lesions at 10 mg/kg, ip qd for 22 days and measured every 2 days by H and E staining based assay; type: organism-based; conditions: in vivo, 528 h, time 22 day
[22] = tested on: Mus musculus; assay: Downregulation of phosphorylated STAT3 level in BALB/c mouse tumor xenografted with human MHCC97H cells at 10 mg/kg, ip qd for 22 days and measured every 2 days by Western blotting analysis; type: functional, organism-based; conditions: time 22.0 day
[23] = tested on: Mus musculus; assay: Downregulation of c-Met protein level in BALB/c mouse tumor xenografted with human MHCC97H cells at 10 mg/kg, ip qd for 22 days and measured every 2 days by Western blotting analysis; type: functional, organism-based; conditions: time 22.0 day
[24] = AUC(0 to infinity) in Sprague-Dawley rat at 1 mg/kg, iv by LC-MS/MS method; type: ADME, organism-based; conditions: in vivo
[25] = Mean residence time (0 to infinity) in Sprague-Dawley rat at 1 mg/kg, iv by LC-MS/MS method; type: ADME, organism-based; conditions: in vivo
[26] = Half-life in Sprague-Dawley rat at 1 mg/kg, iv by LC-MS/MS method; type: ADME, organism-based; conditions: in vivo
[27] = Tmax in Sprague-Dawley rat at 1 mg/kg, iv by LC-MS/MS method; type: ADME, organism-based; conditions: in vivo
[28] = Cmax in Sprague-Dawley rat at 10 mg/kg, po by LC-MS/MS method; type: ADME, organism-based; conditions: in vivo
[29] = Mean residence time (0 to infinity) in Sprague-Dawley rat at 10 mg/kg, po by LC-MS/MS method; type: ADME, organism-based; conditions: in vivo
[30] = Half-life in Sprague-Dawley rat at 10 mg/kg, po by LC-MS/MS method; type: ADME, organism-based; conditions: in vivo
[31] = Tmax in Sprague-Dawley rat at 10 mg/kg, po by LC-MS/MS method; type: ADME, organism-based; conditions: in vivo
[32] = tested on: BaF3; assay: Antiproliferative activity against mouse BaF3 cells harboring TPR-MET D1228N mutant fusion protein incubated for 72 hrs by CellTiter-Glo reagent based assay; type: functional, cell-based; conditions: BaF3, 72 h

T1 sequence (P08581 whole entry): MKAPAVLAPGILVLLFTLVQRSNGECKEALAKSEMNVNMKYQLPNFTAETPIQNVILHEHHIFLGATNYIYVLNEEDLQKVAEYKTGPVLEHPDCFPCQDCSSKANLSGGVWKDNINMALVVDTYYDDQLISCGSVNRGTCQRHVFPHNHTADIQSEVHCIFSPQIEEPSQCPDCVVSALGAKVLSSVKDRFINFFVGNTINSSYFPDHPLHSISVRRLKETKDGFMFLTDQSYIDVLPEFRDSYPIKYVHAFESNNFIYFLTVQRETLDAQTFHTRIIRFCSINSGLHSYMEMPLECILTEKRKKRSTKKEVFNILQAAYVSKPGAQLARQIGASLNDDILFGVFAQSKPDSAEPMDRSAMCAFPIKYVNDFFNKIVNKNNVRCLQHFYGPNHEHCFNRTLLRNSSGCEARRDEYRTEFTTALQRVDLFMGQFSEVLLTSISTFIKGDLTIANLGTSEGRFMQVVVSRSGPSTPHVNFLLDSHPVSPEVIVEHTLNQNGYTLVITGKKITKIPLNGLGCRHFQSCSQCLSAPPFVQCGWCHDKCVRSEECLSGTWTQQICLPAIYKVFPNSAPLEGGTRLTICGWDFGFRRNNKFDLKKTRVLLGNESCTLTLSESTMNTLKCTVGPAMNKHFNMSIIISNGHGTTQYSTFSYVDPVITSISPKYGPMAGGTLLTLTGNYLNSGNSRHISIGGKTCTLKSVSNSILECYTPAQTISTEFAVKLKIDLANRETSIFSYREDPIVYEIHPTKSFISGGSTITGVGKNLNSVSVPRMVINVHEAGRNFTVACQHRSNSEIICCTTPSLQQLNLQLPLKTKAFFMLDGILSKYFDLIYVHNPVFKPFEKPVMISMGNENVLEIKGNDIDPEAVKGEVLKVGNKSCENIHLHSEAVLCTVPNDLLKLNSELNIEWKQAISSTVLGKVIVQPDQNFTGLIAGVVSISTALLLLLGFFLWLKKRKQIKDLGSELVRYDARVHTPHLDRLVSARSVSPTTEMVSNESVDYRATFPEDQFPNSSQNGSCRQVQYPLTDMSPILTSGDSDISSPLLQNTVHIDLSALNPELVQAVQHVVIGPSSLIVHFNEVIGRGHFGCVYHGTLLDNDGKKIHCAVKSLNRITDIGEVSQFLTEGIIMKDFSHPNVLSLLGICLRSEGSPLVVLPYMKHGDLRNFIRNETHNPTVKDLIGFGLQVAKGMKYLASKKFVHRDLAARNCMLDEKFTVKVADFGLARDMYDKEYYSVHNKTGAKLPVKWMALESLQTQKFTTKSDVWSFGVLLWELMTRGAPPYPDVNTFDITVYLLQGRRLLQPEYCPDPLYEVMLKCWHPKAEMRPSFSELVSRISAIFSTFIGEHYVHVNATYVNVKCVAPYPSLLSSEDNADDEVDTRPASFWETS

SMILES: N#Cc1cccc(-c2ccc(=O)n(Cc3cccc(-c4ncc(OCC5CCN(CCCCCC(=O)NCC67CC8CC(CC(C8)C6)C7)CC5)cn4)c3)n2)c1
- Activity [1]: 84.8%
- Activity [2]: Active
- Activity [3]: inactive
- Activity [4]: Dose-Dependent Effect
- Activity [5]: 74.6%
- Activity [6]: 15.9%
- Activity [7]: 79.1%
- Activity [8]: 13.6%
- viability at 0.003 µM [9]: 79.5%
- Activity [10]: 3.76%
- viability at 0.01 µM [11]: 72.7%
- Activity [12]: 6.18%
- Activity [13]: 1.4%
- Activity [14]: 1.35%
- Activity [15]: Dose-Dependent Effect
- inhibition in vivo at 10 mg/kg [16]: 61.5%
- inhibition in vivo at 20 mg/kg [17]: 52.5%
- Activity [18]: Active
- Activity [19]: Non-Toxic
- Activity [20]: Non-Toxic
- Activity [21]: Non-Toxic
- Activity [22]: Active
- Activity [23]: Active
- AUC(0-inf) [24]: 994 ng·h/mL
- MRT inf [25]: 3.86 h
- half-life [26]: 2.5 h
- Tmax [27]: 4.98 min
- Cmax [28]: 16.3 ng/mL
- MRT inf [29]: 3.73 h
- half-life [30]: 2.57 h
- Tmax [31]: 1.17 h
- pIC50 [32]: 6.33

Reference: ChEMBL document CHEMBL5523740, “Discovery of Potent and Selective c-Met Degraders for Hepatocellular Carcinoma Treatment” (J Med Chem, 2024)
